Assay results as given in article PMC11642236, “Valorization of Hom Thong Banana Peel (Musa sp., AAA Group) as an Anti-Melanogenic Agent Through Inhibition of Pigmentary Genes and Molecular Docking Study” (International Journal of Molecular Sciences, 2024).
≈ marks a conversion by molar mass, not a printed value.

molecular target: T1, mushroom tyrosinase; experiment: L-dopachrome formation, absorbance at […] nm; assay type: biochemical, Agaricus bisporus; conditions: L-DOPA as substrate (diphenolase); 0.1 M phosphate buffer, room temperature, 30 min
T1 construct: gene PPO3; PDB 2Y9X used only for docking

| IC50 Values (mg/mL) / L-DOPA as the Substrate [mg/mL] | Compound |
| --- | --- |
| 3.62 ± 0.08 (≈ 10 mM) | O=C(/C=C/c1ccc(O)c(O)c1)O[C@H](Cc1ccc(O)c(O)c1)C(=O)O [Rosmarinic acid] |
| 4.19 ± 0.15 (≈ 25.5 mM) | O=C(O)/C=C/c1ccccc1O [o-Coumaric acid] |
| 3.93 ± 0.09 (≈ 20.2 mM) | COc1cc(/C=C/C(=O)O)ccc1O [Ferulic acid] |

Second part, the compound before the results:

| Compound | IC50 Values (mg/mL) / L-DOPA as the Substrate [mg/mL] |
| --- | --- |
| Oc1cc(O)c2c(c1)O[C@H](c1ccc(O)c(O)c1)[C@@H](O)C2 [Catechin] | 6.42 ± 0.45 (≈ 22.1 mM) |
| OC[C@H]1O[C@@H](Oc2ccc(O)cc2)[C@H](O)[C@@H](O)[C@@H]1O [Arbutin, reference compound] | 3.44 ± 0.04 (≈ 12.6 mM) |
